From patent publication US20210346319A1, “Pharmaceutical Compositions of R-(+)-Propranolol in Enantiomeric Excess and Therapeutic Uses Related Thereto” (Emory University, priority 2018, published 2021)
Entries after “also recorded” stand apart in the source; their conditions may differ.

Experiments:
[1] = tested on: bEnd.3 tumors; experiment: RNAseq analysis of R-propranolol vs vehicle treated tumors; assay type: in vivo, mice
Text: In order to gain an understanding of the mechanism of action of R-propranolol in vivo, vehicle and R-propranolol treated tumors were subjected to RNA seq analysis. […] The APOA1 gene expresses a protein called apolipoprotein A-I (apoA-I). ApoA-I is a component of high-density lipoprotein (HDL) which transports cholesterol and phospholipids through the bloodstream for excretion by the liver beneficial for cardiovascular health.

[2] = tested on: VEGF; experiment: VEGF levels in infants receiving propranolol for hemangioma of infancy; assay type: in vivo, human; conditions: saliva of infants with hemangiomas, hydrochloride
Text: (§1) Genetic studies of hemangiomas have not elucidated a common genetic cause, as opposed to other vascular lesions, such as vascular malformations and angiosarcomas, in which genetic mutations have been found. Cytokines have been found in hemangiomas of infancy, including vascular endothelial growth factor (VEGF) and Angiopoietin-2 (Ang-2). The role of these factors in hemangiomas are not fully understood, especially given that Ang-2 can serve as a growth factor or mediate endothelial apoptosis depending on the context. A series of infants were studied who received propranolol for treatment of hemangioma of infancy.

[3] = tested on: Angiopoietin-2 (Ang-2); experiment: Ang-2 levels in infants receiving propranolol for hemangioma of infancy; assay type: in vivo, human; conditions: saliva of infants with hemangiomas
Text: as §1

[4] = tested on: Angptl4; experiment: Downregulation of VEGF/Angptl4 by propranolol and its isomers (summary statements); assay type: cell-based
[5] = tested on: hemangioma of infancy; conditions: infant who received propranolol for cardiac disease; cited from earlier work
[6] = tested on: Angptl4; experiment: Gene array of treated hemangioma stem cells (HemSC); assay type: cell-based, human; conditions: for Angptl4 gene regulation on gene array: HemSC cells vs vehicle control; for effectiveness in downregulating Angptl4 compared with S-propranolol: hemangioma stem cells
[7] = tested on: Angptl4; experiment: Western blot analysis of Angptl4 in HemSC cells
[8] = tested on: Angptl4; conditions: bEnd.3 cells, FIG. 1
[9] = tested on: bEnd.3 hemangioma cells; experiment: Seahorse analysis of respiration in bEnd.3 cells; conditions: for basal respiration / spare respiratory capacity: FIG. 5B; for maximal respiration: compared to vehicle control
[10] = tested on: bEnd.3 hemangioma; experiment: bEnd.3 hemangioma xenograft growth in nude mice; assay type: in vivo; conditions: p=0.014
Method: The xenograft model was developed and approved by the Institutional Animal Care and Use Committee of Emory University. bEnd.3 cell suspension in growth medium was inoculated in the right flank of athymic Nu/Nu nude male mice purchased from the Charles River Laboratories at 2.5×10^5 cells/mouse (n=5 per group). Control or R-propranolol was administered intraperitoneally five times a week at 3.5 mg/kg/day. R-propranolol treatment was initiated on the second day after the tumor cell injection.
To elucidate the signaling cascade independent of beta blockade in hemangioma formation, tie-2-deficient mouse hemangioma cell line, bEnd.3 was xenografted and treated with or without R-propranolol, isomer deficient in beta blockade activity.

[11] = RNAseq treated vs vehicle tumors

CC(C)NCC(O)COc1cccc2ccccc12.Cl (racemic) [propranolol, (±)-1-[(1-methylethyl)amino]-3-(1-naphthalenyloxy)-2-propanol hydrochloride]
N4RA1 (Nur77) expression [1, 11]: upregulated
VEGF levels [2]: reduced
VEGF levels ([2]; listed as Propranolol): downregulates
Ang-2 levels [3]: not
VEGF/Angplt4 downregulation [4]: coordinately downregulates
hemangioma of infancy, clinical course [5]: regression

CN(C)c1ccc(C(=C2C=CC(=[N+](C)C)C=C2)c2ccc(N(C)C)cc2)cc1 [gentian violet]
Angptl4 gene regulation on gene array [6]: downregulated; also recorded: most regulated gene
Angptl4 expression, Western blot ([7]; FIG. 1): suppressed Angptl4
Angptl4 expression, Western blot ([7]; FIG. 1, listed as Gentian violet): downregulated Angptl4
Angptl4 protein expression [8]: much reduced

CC(C)NCC(O)COc1cccc2ccccc12 (stereo not drawn) [S-propranolol, reference compound]
Angptl4 gene regulation on gene array [6]: downregulated; also recorded: most regulated gene
Angptl4 expression, Western blot ([7]; FIG. 1): not
Angptl4 expression, Western blot ([7]; FIG. 1, listed as S isomer): had no effect
basal respiration [9]: increased
spare respiratory capacity [9]: increased
maximal respiration ([9]; FIG. 5A): substantially increased
Angptl4 protein expression [8]: slightly elevated

CC(C)NC[C@@H](O)COc1cccc2ccccc12 [R-propranolol, (R)-(+)-1-(isopropylamino)-3-(naphthalen-1-yloxy)propan-2-ol]
Angptl4 gene regulation on gene array [6]: downregulated; also recorded: most regulated gene
effectiveness in downregulating Angptl4 compared with S-propranolol [6]: far more effective
effectiveness in downregulating Angptl4 compared with S-propranolol ([6]; listed as R(+)-propranolol): More Effective
tumor volume ([10]; 3.5 mg/kg/day intraperitoneally five times a week, control 593.32, n=5 per group): 37.60 mm3
effect on bEnd.3 hemangioma tumor growth in vivo ([10]; xenograft in mice, within two weeks of tumor development): active in vivo; also recorded: significant tumor volume reduction; also recorded: significantly reduced the tumor volume; also recorded: inhibited the growth; also recorded: significant inhibition of tumor growth
APOA1 expression [1, 11]: induced; also recorded: upregulated
BHMT expression [1, 11]: most highly regulated gene; also recorded: upregulated; also recorded: most upregulated
Egr-1 expression [1, 11]: elevated; also recorded: upregulated
choline metabolism pathway (KEGG analysis) [1, 11]: the pathway affected; also recorded: highly affected
Eno4 expression ([1]; RNAseq, FIG. 4): downregulated
Faim2 expression ([1]; RNAseq, FIG. 4): downregulated
Hunk expression ([1]; RNAseq, FIG. 4): downregulated
number of RNA transcripts significantly downregulated ([1]; RNAseq, FIG. 4): Seven
number of RNA transcripts upregulated ([1]; RNAseq, FIG. 4): seventeen
activity against Angptl4 compared with S-propranolol ([4]; endothelial cells): greater downregulation; also recorded: more active
Angptl4 expression, Western blot ([7]; FIG. 1): reduced expression of Angptl4
Angptl4 expression, Western blot ([7]; FIG. 1, listed as R-isomer): suppressed Angptl4
respiration compared with S-propranolol ([9]; FIG. 5A): stronger respiration
basal respiration [9]: increased
spare respiratory capacity [9]: increased
maximal respiration ([9]; FIG. 5A): substantially increased
Angptl4 protein expression [8]: markedly reduced
